Data as given in patent publication US20090325287A1, “Methods for Obtaining High Viable Cell Density in Mammalian Cell Culture” (priority 2008, published 2009).

How the values were obtained:
caspase 3/7 = assay: Caspase 3/7 activity assay (APO-ONE) after staurosporine treatment; format: cell-based, Chinese Hamster; settings: staurosporine 2 μM, 16 h
Protocol: About 3×10^5 cells of each clone were seeded in one ml of growth medium in a 24-well plate. On day 4 (d4) post seeding, about 1×10^5 cells were transferred in triplicate to a 96 well plate. Staurosprine (2 μM fc) was added and the cells were incubated for 16 h before assaying for caspase3/7 activity by APO-ONE kit (BD Labs). The procedure was repeated on d10, except that Staurosporine was omitted. […] The apoptotic^R nature of the selected clones was confirmed by flow cytometry analysis (see below) and in some instances, by measuring the mitochondrial membrane potential.
Each apoptotic^R cell line was examined for caspase 3/7 activity by APO-ONE as this activity provides an indication of the degree of resistance of a cell line to apoptosis. Briefly, in this assay, the profluorescent substrate Z-DEVD-R110 is cleaved by caspase 3/7 in a dose-dependent manner. Exponential cultures of EA167 and EAX197 as well as the control cell line were treated with staurosporine for 16 hours to induce apoptosis, following which caspase 3/7 was measured. The caspase 3/7 activity in staurosporine treated control cells was arbitrarily set at 100%. […] As further evidence of the apoptotic^R nature of EA167 and EAX197, staurosporine-treated cultures of these two cell lines and the control cell line, were labeled with FITC-conjugated anti-caspase 3 antibody followed by analysis by flow cytometry. […]

caspase 3 = assay: Flow cytometry with FITC-labeled anti-caspase 3 antibody after staurosporine treatment; format: cell-based, Chinese Hamster; settings: staurosporine 2 μM, 16 h
Protocol: About 1×10^6 cells from exponential cultures were withdrawn from each shake flask into 24 well plates, incubated with Staurosporine (2 μM fc) for 16 h, harvested and washed once in PBS. The cells were then incubated with CytoPerm (Cat. No. 2075KK, BD BioScience) to fix and permeablized them. Following a PBS wash, cells were incubated with FITC-labeled anti-caspase3 (Cat. No. 68654, BD BioScience) antibody before subjecting them to analysis by flow cytometry.
Each apoptotic^R cell line was examined for caspase 3/7 activity by APO-ONE as this activity provides an indication of the degree of resistance of a cell line to apoptosis. Briefly, in this assay, the profluorescent substrate Z-DEVD-R110 is cleaved by caspase 3/7 in a dose-dependent manner. Exponential cultures of EA167 and EAX197 as well as the control cell line were treated with staurosporine for 16 hours to induce apoptosis, following which caspase 3/7 was measured. The caspase 3/7 activity in staurosporine treated control cells was arbitrarily set at 100%. […] As further evidence of the apoptotic^R nature of EA167 and EAX197, staurosporine-treated cultures of these two cell lines and the control cell line, were labeled with FITC-conjugated anti-caspase 3 antibody followed by analysis by flow cytometry. […] However, 91% of the control cell population was positive for caspase 3 following staurosporine treatment. In contrast, only 9% of the population derived from cell line EAX197 and 30% of that derived from cell line EA167 were positive for caspase 3, confirming the apoptotic^R phenotype of these two cell lines.

CN[C@@H]1C[C@H]2O[C@@](C)([C@@H]1OC)n1c3ccccc3c3c4c(c5c6ccccc6n2c5c31)C(=O)NC4 [staurosporine]
caspase 3/7 activity, of staurosporine treated control cells (set at 100%) (caspase 3/7; EA167 cells (CHOK1SV expressing E1B-19K + Aven)): 30% | caspase 3/7 activity, of staurosporine treated control cells (set at 100%) (caspase 3/7; EAX197 cells (CHOK1SV expressing E1B-19K + Aven + XIAPΔ)): 35% | cell population positive for caspase 3 (caspase 3; EA167 cells): 30% | cell population positive for caspase 3 (caspase 3; EAX197 cells): 9% | cell population positive for caspase 3 (caspase 3; control cell line (CHOK1SV, C1013A)): 91%
